Test results as given in patent publication US8916204B2, “SPARC and methods of use thereof” (Abraxis BioScience, LLC, priority 2004, dated 2014).

Test system: endothelial monolayers (gp60-mediated caveolar transcytosis)
Assay: inhibition of transport of paclitaxel from ABX across endothelial monolayers
Format: in vitro ADME, human
Excerpt: Transport was dependent on albumin.

## CCN1C(=O)C=CC1=O [NEM]
  effect on transport of paclitaxel from ABX: inhibited

## […]-methyl cyclodextrin [BMC]
  effect on transport of paclitaxel from ABX: inhibited
